Values of other authors in publication PMC10386743, “Application of Ligand- and Structure-Based Prediction Models for the Design of Alkylhydrazide-Based HDAC3 Inhibitors as Novel Anti-Cancer Compounds” (Pharmaceuticals, 2023).

Test system: recombinant human HDAC3
Conditions: recombinant human HDAC3, Boc-Lys(acetyl)-AMC; supplement Ref. [46]

Row | SMILES | pIC50 HDAC3 (HDAC3 experimental pIC50)
1 | CCCNNC(=O)c1ccc(CNC(=O)c2cc3ccccc3cn2)cc1 [Compound 15] | 8.83
2 | CCCNNC(=O)c1ccc(CNC(=O)c2nc3ccccc3[nH]2)cc1 [Compound 14] | 8.84
3 | CCCNNC(=O)c1ccc(CNC(=O)c2cnc3ccccc3c2)cc1 [Compound 18] | 8.75
4 | CCCNNC(=O)c1ccc(CNC(=O)c2cc3cc(Cl)ccc3o2)cc1 [Compound 5] | 9.21
5 | CCCNNC(=O)c1ccc(CNC(=O)c2ccc3ccncc3c2)cc1 [Compound 16] | 8.81
6 | C#CCOc1ccc2oc(C(=O)NCc3ccc(C(=O)NNCCC)cc3)cc2c1 [Compound 8] | 9.07
7 | CCCNNC(=O)c1ccc(CNC(=O)c2cc3cc(OC)ccc3[nH]2)cc1 [Compound 41] | 9.24
8 | CCCNNC(=O)c1ccc(CNC(=O)c2cc3cc(Br)ccc3o2)cc1 [Compound 42] | 9.21
9 | CCCNNC(=O)c1ccc(CNC(=O)c2cc3cc(O)ccc3o2)cc1 [Compound 40] | 9.29
10 | CCCNNC(=O)c1ccc(CNC(=O)c2nc3ccccc3s2)cc1 [Compound 12] | 8.88
11 | CCCNNC(=O)c1ccc(CNC(=O)c2cc3cc(OC)ccc3o2)cc1 [Compound 1] | 9.55
12 | CCCNNC(=O)c1ccc(CNC(=O)c2cc3ccccc3[nH]2)cc1 [Compound 4] | 9.36
13 | CCCNNC(=O)c1ccc(CNC(=O)c2cc3cnccc3cn2)cc1 [Compound 19] | 8.69
14 | CCCNNC(=O)c1ccc(CNC(=O)c2cc3ccccc3o2)cc1 [Compound 3] | 9.42
15 | CCCNNC(=O)c1ccc(CNC(=O)c2cc3cc(F)ccc3o2)cc1 [Compound 7] | 9.08
16 | CCCNNC(=O)c1ccc(CNC(=O)c2ccc3ccccc3n2)cc1 [Compound 9] | 9.05
17 | CCCNNC(=O)c1ccc(CNC(=O)c2cc3cc(F)ccc3[nH]2)cc1 [Compound 17] | 8.79
18 | CCCNNC(=O)c1ccc(CNC(=O)c2cc3cc(Cl)ccc3[nH]2)cc1 [Compound 6] | 9.18
19 | CCCNNC(=O)c1ccc(CNC(=O)c2ccc3cnccc3c2)cc1 [Compound 11] | 8.99
20 | CCCNNC(=O)c1ccc(CNC(=O)c2cc3cc(Br)ccc3[nH]2)cc1 [Compound 13] | 8.88

Same assay, conditions: recombinant human HDAC3, Boc-Lys(acetyl)-AMC; supplement prints Ref. [48]

Row | SMILES | pIC50 HDAC3 (HDAC3 experimental pIC50)
21 | CCCNNC(=O)/C=C/c1ccc(CN(CCc2c(C)[nH]c3ccccc23)C(=O)OC(C)(C)C)cc1 [Compound 44] | 7.78
22 | CCCNNC(=O)c1ccc(NCc2ccccc2)cc1 [Compound 22] | 8.21
23 | Cc1[nH]c2ccccc2c1CCNCc1ccc(/C=C/C(=O)NNCCC#N)cc1 [Compound 45] | 7.46
24 | CCCNNC(=O)c1ccc(OCc2ccccc2)cc1 [Compound 27] | 7.61
25 | CCCNNC(=O)c1ccc(CN(CCc2c(C)[nH]c3ccccc23)C(=O)OC(C)(C)C)cc1 [Compound 43] | 7.90
26 | CCCNNC(=O)c1ccc(CN(Cc2ccccc2)C(=O)OC(C)(C)C)cc1 [Compound 49] | 7.11
27 | CCCNNC(=O)c1cccc(CN(CCc2c(C)[nH]c3ccccc23)C(=O)OC(C)(C)C)c1 [Compound 57] | 5.30
28 | CCCNNC(=O)c1ccc(CNCc2ccccc2)cc1 [Compound 30] | 7.01
29 | Cc1[nH]c2ccccc2c1CCNCc1ccc(/C=C/C(=O)NNCCN)cc1 [Compound 59] | 5.28
30 | COC(=O)CCNNC(=O)/C=C/c1ccc(CNCCc2c(C)[nH]c3ccccc23)cc1 [Compound 34] | 6.51
31 | CCCNNC(=O)c1ccc(NC(=O)c2ccccc2)cc1 [Compound 46] | 7.31
32 | CCCNNC(=O)c1cccc(CNCCc2c(C)[nH]c3ccccc23)c1 [Compound 36] | 6.17
33 | CCCNNC(=O)/C=C/c1ccc(CNCCc2c(C)[nH]c3ccccc23)cc1 [Compound 2] | 9.55
34 | CCCNNC(=O)c1ccc(CNCCc2c(C)[nH]c3ccccc23)cc1 [Compound 26] | 7.70

Same assay, conditions: recombinant human HDAC3, Boc-Lys(acetyl)-AMC; supplement prints Ref. [50]

Row | SMILES | pIC50 HDAC3 (HDAC3 experimental pIC50)
35 | CCCCCCCCNNC(=O)c1ccc(CNC(=O)c2ccccc2)cc1 [Compound 53] | 5.96
36 | O=C(NCc1ccc(C(=O)NNCCC(F)(F)F)cc1)c1ccccc1 [Compound 48] | 7.16
37 | CCCCCCNNC(=O)c1ccc(CNC(=O)c2ccccc2)cc1 [Compound 32] | 6.73
38 | CCCCNNC(=O)c1ccc(-c2ccccc2)cc1 [Compound 47] | 7.17
39 | CCCCNNC(=O)c1ccc(OC)cc1 [Compound 31] | 6.80
40 | CCCCNNC(=O)c1ccc(CNC(=O)/C=C/c2ccccc2)cc1 [Compound 21] | 8.44
41 | CCCCNNC(=O)c1cccs1 [Compound 38] | 6.04
42 | CCCCNNC(=O)c1cccc2ccccc12 [Compound 60] | < 5.00
43 | CC(C)NNC(=O)c1ccc(CNC(=O)c2ccccc2)cc1 [Compound 61] | < 5.00
44 | CCCCNNC(=O)c1cc2ccccc2o1 [Compound 54] | 5.87
45 | CCCCCNNC(=O)c1ccc(CNC(=O)/C=C/c2ccccc2)cc1 [Compound 28] | 7.49
46 | CCCCNNC(=O)c1cccnc1 [Compound 39] | 5.81
47 | CCCCNNC(=O)c1ccc(CNC(=O)c2ccccc2)cc1 [Compound 23] | 8.07
48 | CCCCCCCNNC(=O)c1ccc(CNC(=O)c2ccccc2)cc1 [Compound 35] | 6.25
49 | CCCNNC(=O)c1ccc(CNC(=O)c2ccccc2)cc1 [Compound 20] | 8.46
50 | CCCCNNC(=O)c1ccc(Oc2ccccc2)cc1 [Compound 52] | 6.51
51 | CC/C=N/NC(=O)c1ccc(CNC(=O)c2ccccc2)cc1 [Compound 62] | < 5.00
52 | O=C(NCc1ccc(C(=O)NNCC2CCC2)cc1)c1ccccc1 [Compound 50] | 7.07
53 | O=C(NCc1ccc(C(=O)NNCC2CC2)cc1)c1ccccc1 [Compound 29] | 7.40
54 | CCNNC(=O)c1ccc(CNC(=O)c2ccccc2)cc1 [Compound 51] | 6.73
55 | CCCCNNC(=O)c1ccco1 [Compound 58] | 5.30
56 | CCCCNNC(=O)CCc1ccccc1 [Compound 56] | 5.72
57 | CCCNNC(=O)c1ccc(CNC(=O)/C=C/c2ccccc2)cc1 [Compound 10] | 9.02
58 | CCCCCCCCCCNNC(=O)c1ccc(CNC(=O)c2ccccc2)cc1 [Compound 63] | < 5.00
59 | CCNNC(=O)c1ccc(CNC(=O)/C=C/c2ccccc2)cc1 [Compound 25] | 7.71
60 | CCCCNNC(=O)/C=C/c1ccccc1 [Compound 33] | 6.53
61 | CCCCCNNC(=O)c1ccc(CNC(=O)c2ccccc2)cc1 [Compound 24] | 7.73
62 | CCCCNNC(=O)c1ccc2ccccc2c1 [Compound 37] | 6.05
63 | C/C=C/CNNC(=O)c1ccc(CNC(=O)c2ccccc2)cc1 [Compound 55] | 5.81

Test system: HDAC3
Conditions: 1 µM

Row | SMILES | HDAC3 inhibition @1 µM [%@1 µM]
64 | CCCNNC(=O)c1cnc(NCCc2ccccc2)nc1 [Compound 74] | 41
65 | CCCCCCNNC(=O)c1ccc(C)c(NCc2ccccc2)c1 [Compound 71] | 9

Same assay, conditions: 10uM

Row | SMILES | HDAC3 inhibition @10uM [%]
66 | CCCNNC(=O)c1cnc(NCCc2ccccc2)nc1 [Compound 74] | 87
67 | CCCCCCNNC(=O)c1ccc(C)c(NCc2ccccc2)c1 [Compound 71] | 42

Same assay, conditions: experimentally determined

Row | SMILES | activity on HDAC3 (in words)
68 | CCCNNC(=O)c1cnc(NCCc2ccccc2)nc1 [Compound 74] | did not show significant inhibitory activity
69 | CCCCCCNNC(=O)c1ccc(C)c(NCc2ccccc2)c1 [Compound 71] | did not show significant activity
70 | CCCCCCNNC(=O)c1ccc(CNC(C)=O)cc1 [Compound 69] | did not show significant activity
71 | CCCCCCNNC(=O)c1cccc(NCc2ccccc2)c1 [Compound 70] | did not show significant activity

Same assay, conditions: newly designed compounds

Row | SMILES | pIC50 HDAC3 (HDAC3 experimental pIC50)
72 | CCCCCCNNC(=O)c1cnc(NCc2ccccc2)nc1 [Compound 83] | 5.52
73 | CCCCNNC(=O)c1ccc(-c2ccc(CNC(C)=O)cc2)cc1 [Compound 65] | 6.46
74 | CCCCCCNNC(=O)c1cnc(N2CCN(Cc3cn(C)c4ccccc34)CC2)nc1 [Compound 87] | 6.52
75 | CCCNNC(=O)c1cnc(NCc2cccc3ccccc23)nc1 [Compound 75] | 7.09
76 | CCCCCCNNC(=O)c1cnc(NCCc2ccccc2)nc1 [Compound 82] | <5.00
77 | CCCNNC(=O)c1cnc(N2CCN(Cc3c[nH]c4ccccc34)CC2)nc1 [Compound 85] | 7.52
78 | CCCNNC(=O)c1cnc(NCc2ccc(CNC(C)=O)cc2)nc1 [Compound 80] | 6.96
79 | CCCCCCNNC(=O)c1ccc(CNC(C)=O)cc1 [Compound 69] | <5.00
80 | CCCCCNNC(=O)c1ccc(-c2ccc(CNC(C)=O)cc2)cc1 [Compound 66] | 5.82
81 | CCCNNC(=O)c1ccc(-c2ccc(CNC(C)=O)cc2)cc1 [Compound 64] | 7.04
82 | CCCCCCNNC(=O)c1cccc(NCc2ccccc2)c1 [Compound 70] | <5.00
83 | CCCNNC(=O)c1cnc(NCc2ccccc2Cl)nc1 [Compound 76] | 7.22
84 | CCCCCCNNC(=O)c1cnc(N2CCN(CCc3cn(C)c4ccccc34)CC2)nc1 [Compound 89] | 5.85
85 | CCCCCCNNC(=O)c1cnc(N2CCN(Cc3c[nH]c4ccccc34)CC2)nc1 [Compound 86] | 7.00
86 | CCCCNNC(=O)c1cnc(NCc2ccccc2)nc1 [Compound 73] | 6.70
